# Assay: Safety assessment: adverse events
# Type: in vivo, Japanese patients
# From the text: Safety assessments consisted of monitoring and recording of all AEs, including laboratory abnormalities and vital signs. DLTs were defined as an AE or a laboratory abnormality assessed as related to the study drug and occurring within the first 28 days of treatment (Cycle 1), as defined in Supplemental Table S1.
# [1] = bid 400 mg N = 8, regardless of study drug relationship
# [2] = qd 400 mg (n = 3), regardless of study drug relationship
# [3] = qd 800 mg (n = 3), regardless of study drug relationship
# [4] = qd 1000 mg (n = 8), regardless of study drug relationship
smiles,measurement,setting,value
Cn1c(=O)n(-c2ccc(C(C)(C)C#N)cc2)c2c3cc(-c4cnc5ccccc5c4)ccc3ncc21 [BEZ235],study drug-related SAE,1000 mg qd,grade 2 colitis
same,patients requiring dose reduction in Cycle 2,1200 mg qd,two out of six
same,patients requiring dose interruption due to AEs,1400 mg qd,six
same,patients requiring dose reduction in early cycles,1400 mg qd,three
same,study drug-related SAE,1400 mg qd,grade 2 Pneumocystis jiroveci pneumonia
same,"AEs Total, All grades",[1],8 (100.0) n (%)
same,"AEs Total, Grade ¾",[1],7 (87.5) n (%)
same,"Alanine aminotransferase increased, All grades",[1],4 (50.0) n (%)
same,"Alanine aminotransferase increased, Grade ¾",[1],0 n (%)
same,"Anxiety, All grades",[1],2 (25.0) n (%)
same,"Anxiety, Grade ¾",[1],0 n (%)
same,"Aspartate aminotransferase increased, All grades",[1],4 (50.0) n (%)
same,"Aspartate aminotransferase increased, Grade ¾",[1],1 (12.5) n (%)
same,"Blood alkaline phosphatase increased, All grades",[1],2 (25.0) n (%)
same,"Blood alkaline phosphatase increased, Grade ¾",[1],0 n (%)
same,"Blood creatinine increased, All grades",[1],3 (37.5) n (%)
same,"Blood creatinine increased, Grade ¾",[1],0 n (%)
same,"Cancer pain, All grades",[1],3 (37.5) n (%)
same,"Cancer pain, Grade ¾",[1],2 (25.0) n (%)
same,"Cheilitis, All grades",[1],3 (37.5) n (%)
same,"Cheilitis, Grade ¾",[1],0 n (%)
same,"Decreased appetite, All grades",[1],7 (87.5) n (%)
same,"Decreased appetite, Grade ¾",[1],1 (12.5) n (%)
same,"Diarrhea, All grades",[1],7 (87.5) n (%)
same,"Diarrhea, Grade ¾",[1],1 (12.5) n (%)
same,"Dry skin, All grades",[1],4 (50.0) n (%)
same,"Dry skin, Grade ¾",[1],0 n (%)
same,"Dysphagia, All grades",[1],3 (37.5) n (%)
same,"Dysphagia, Grade ¾",[1],0 n (%)
same,"Fatigue, All grades",[1],5 (62.5) n (%)
same,"Fatigue, Grade ¾",[1],1 (12.5) n (%)
same,"Gamma-glutamyltransferase increased, All grades",[1],2 (25.0) n (%)
same,"Gamma-glutamyltransferase increased, Grade ¾",[1],0 n (%)
same,"Haemoglobin decreased, All grades",[1],4 (50.0) n (%)
same,"Haemoglobin decreased, Grade ¾",[1],1 (12.5) n (%)
same,"Hyperkalaemia, All grades",[1],2 (25.0) n (%)
same,"Hyperkalaemia, Grade ¾",[1],0 n (%)
same,"Hypoalbuminaemia, All grades",[1],4 (50.0) n (%)
same,"Hypoalbuminaemia, Grade ¾",[1],1 (12.5) n (%)
same,"Hyponatraemia, All grades",[1],2 (25.0) n (%)
same,"Hyponatraemia, Grade ¾",[1],1 (12.5) n (%)
same,"Insomnia, All grades",[1],4 (50.0) n (%)
same,"Insomnia, Grade ¾",[1],0 n (%)
same,"Lymphopenia, All grades",[1],4 (50.0) n (%)
same,"Lymphopenia, Grade ¾",[1],2 (25.0) n (%)
same,"Malaise, All grades",[1],2 (25.0) n (%)
same,"Malaise, Grade ¾",[1],1 (12.5) n (%)
same,"Nausea, All grades",[1],7 (87.5) n (%)
same,"Nausea, Grade ¾",[1],0 n (%)
same,"Pyrexia, All grades",[1],2 (25.0) n (%)
same,"Pyrexia, Grade ¾",[1],0 n (%)
same,"Rash, All grades",[1],4 (50.0) n (%)
same,"Rash, Grade ¾",[1],0 n (%)
same,"Stomatitis, All grades",[1],5 (62.5) n (%)
same,"Stomatitis, Grade ¾",[1],0 n (%)
same,"Thrombocytopenia, All grades",[1],5 (62.5) n (%)
same,"Thrombocytopenia, Grade ¾",[1],2 (25.0) n (%)
same,"Urinary tract infection, All grades",[1],2 (25.0) n (%)
same,"Urinary tract infection, Grade ¾",[1],0 n (%)
same,"Vomiting, All grades",[1],4 (50.0) n (%)
same,"Vomiting, Grade ¾",[1],0 n (%)
same,study drug-related SAE,"bid dosing group, one patient",grade 4 diarrhea
same,patients with Grade 3 or 4 AEs,"bid dosing, seven patients",87.5%
same,study drug discontinuation due to AEs,"bid group, one patient",12.5%
same,grade 3 or 4 lymphopenia suspected to be study drug-related,"bid group, two patients",25.0%
same,grade 3 or 4 thrombocytopenia suspected to be study drug-related,"bid group, two patients",25.0%
same,deaths during the study period,"including a 30-day follow-up, qd and bid",No patient died
same,"AEs Total, All grades",[2],3 (100.0) n (%)
same,"AEs Total, Grade ¾",[2],2 (66.7) n (%)
same,"Alanine aminotransferase increased, All grades",[2],2 (66.7) n (%)
same,"Alanine aminotransferase increased, Grade ¾",[2],0 n (%)
same,"Blood alkaline phosphatase increased, All grades",[2],1 (33.3) n (%)
same,"Blood alkaline phosphatase increased, Grade ¾",[2],0 n (%)
same,"Cancer pain, All grades",[2],2 (66.7) n (%)
same,"Cancer pain, Grade ¾",[2],1 (33.3) n (%)
same,"Decreased appetite, All grades",[2],2 (66.7) n (%)
same,"Decreased appetite, Grade ¾",[2],0 n (%)
same,"Diarrhea, All grades",[2],2 (66.7) n (%)
same,"Diarrhea, Grade ¾",[2],0 n (%)
same,"Dysgeusia, All grades",[2],0 n (%)
same,"Dysgeusia, Grade ¾",[2],0 n (%)
same,"Fatigue, All grades",[2],1 (33.3) n (%)
same,"Fatigue, Grade ¾",[2],0 n (%)
same,"Leukopenia, All grades",[2],0 n (%)
same,"Leukopenia, Grade ¾",[2],0 n (%)
same,"Lymphopenia, All grades",[2],2 (66.7) n (%)
same,"Lymphopenia, Grade ¾",[2],2 (66.7) n (%)
same,"Nausea, All grades",[2],3 (100.0) n (%)
same,"Nausea, Grade ¾",[2],0 n (%)
same,"Neutropenia, All grades",[2],0 n (%)
same,"Neutropenia, Grade ¾",[2],0 n (%)
same,"Pyrexia, All grades",[2],1 (33.3) n (%)
same,"Pyrexia, Grade ¾",[2],0 n (%)
same,"Rash, All grades",[2],1 (33.3) n (%)
same,"Rash, Grade ¾",[2],0 n (%)
same,"Stomatitis, All grades",[2],2 (66.7) n (%)
same,"Stomatitis, Grade ¾",[2],0 n (%)
same,"Thrombocytopenia, All grades",[2],0 n (%)
same,"Thrombocytopenia, Grade ¾",[2],0 n (%)
same,"Vomiting, All grades",[2],2 (66.7) n (%)
same,"Vomiting, Grade ¾",[2],0 n (%)
same,"AEs Total, All grades",[3],3 (100.0) n (%)
same,"AEs Total, Grade ¾",[3],1 (33.3) n (%)
same,"Alanine aminotransferase increased, All grades",[3],0 n (%)
same,"Alanine aminotransferase increased, Grade ¾",[3],0 n (%)
same,"Blood alkaline phosphatase increased, All grades",[3],0 n (%)
same,"Blood alkaline phosphatase increased, Grade ¾",[3],0 n (%)
same,"Cancer pain, All grades",[3],2 (66.7) n (%)
same,"Cancer pain, Grade ¾",[3],0 n (%)
same,"Decreased appetite, All grades",[3],3 (100.0) n (%)
same,"Decreased appetite, Grade ¾",[3],0 n (%)
same,"Diarrhea, All grades",[3],3 (100.0) n (%)
same,"Diarrhea, Grade ¾",[3],0 n (%)
same,"Dysgeusia, All grades",[3],1 (33.3) n (%)
same,"Dysgeusia, Grade ¾",[3],0 n (%)
same,"Fatigue, All grades",[3],2 (66.7) n (%)
same,"Fatigue, Grade ¾",[3],0 n (%)
same,"Leukopenia, All grades",[3],1 (33.3) n (%)
same,"Leukopenia, Grade ¾",[3],0 n (%)
same,"Lymphopenia, All grades",[3],1 (33.3) n (%)
same,"Lymphopenia, Grade ¾",[3],1 (33.3) n (%)
same,"Nausea, All grades",[3],1 (33.3) n (%)
same,"Nausea, Grade ¾",[3],0 n (%)
same,"Neutropenia, All grades",[3],1 (33.3) n (%)
same,"Neutropenia, Grade ¾",[3],0 n (%)
same,"Pyrexia, All grades",[3],1 (33.3) n (%)
same,"Pyrexia, Grade ¾",[3],0 n (%)
same,"Rash, All grades",[3],0 n (%)
same,"Rash, Grade ¾",[3],0 n (%)
same,"Stomatitis, All grades",[3],2 (66.7) n (%)
same,"Stomatitis, Grade ¾",[3],0 n (%)
same,"Thrombocytopenia, All grades",[3],1 (33.3) n (%)
same,"Thrombocytopenia, Grade ¾",[3],1 (33.3) n (%)
same,"Vomiting, All grades",[3],1 (33.3) n (%)
same,"Vomiting, Grade ¾",[3],0 n (%)
same,"AEs Total, All grades",[4],8 (100.0) n (%)
same,"AEs Total, Grade ¾",[4],4 (50.0) n (%)
same,"Alanine aminotransferase increased, All grades",[4],0 n (%)
same,"Alanine aminotransferase increased, Grade ¾",[4],0 n (%)

# From paper PMC6394493 (Cancer Chemotherapy and Pharmacology, 2018)
